# Patent US8952024B2, “Herbicidal pyrimidone derivatives” (E I du Pont de Nemours and Company, priority 2009, dated 2015)
# Tests used:
# Type in all cases: in vivo
# [1] = test system: barnyardgrass (Echinochloa crus-galli); assay: Test B flooded paddy test; details: for Plant response rating, Flood, Barnyardgrass: 250 g ai/ha, flooded paddy test, visual rating on 0 to 100 scale (0 no effect, 100 complete control) after 13 to 15 days; for Plant response rating, Barnyardgrass: Flood (flooded paddy test), 13 to 15 days
# In short: (§1)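 Visual scores run from 0 (no effect) to 100 (complete control), assigned by comparison with controls 13 to 15 days after treatment. Test compounds went straight into water standing 3 cm above the soil, around plants at the 2-leaf stage kept in a greenhouse.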
# [2] = test system: rice (Oryza sativa); assay: Test B flooded paddy test; details: for Plant response rating, Flood, Rice: 250 g ai/ha, flooded paddy test, visual rating on 0 to 100 scale (0 no effect, 100 complete control) after 13 to 15 days; for Plant response rating, Rice: Flood (flooded paddy test), 13 to 15 days
# In short: as §1
# [3] = test system: umbrella sedge (Cyperus difformis); assay: Test B flooded paddy test; details: for Plant response rating, Flood, Sedge, Umbrella: 250 g ai/ha, flooded paddy test, visual rating on 0 to 100 scale (0 no effect, 100 complete control) after 13 to 15 days; for Plant response rating, Sedge, Umbrella: Flood (flooded paddy test), 13 to 15 days
# In short: as §1
# [4] = test system: ducksalad (Heteranthera limosa); assay: Test B flooded paddy test; details: for Plant response rating, Flood, Ducksalad: 250 g ai/ha, flooded paddy test, visual rating on 0 to 100 scale (0 no effect, 100 complete control) after 13 to 15 days; for Plant response rating, Ducksalad: Flood (flooded paddy test), 13 to 15 days
# In short: as §1
# [5] = test system: corn (Zea mays); assay: Test A pre-/postemergence plant response
# Excerpt: (§2) Seeds of barnyardgrass (Echinochloa crus-galli), large crabgrass (Digitaria sanguinalis), giant foxtail (Setaria faberii), morningglory (Ipomoea spp.), pigweed (Amaranthus retroflexus), velvetleaf (Abutilon theophrasti), wheat (Triticum aestivum) and corn (Zea mays) were planted into a blend of loam soil and sand and treated preemergence with a directed soil spray using test chemicals formulated in a non-phytotoxic solvent mixture which included a surfactant. At the same time these species were also treated with postemergence applications of test compounds formulated in the same manner.
# (§3) Plants ranged in height from two to ten cm and were in the one- to two-leaf stage for the postemergence treatment. Treated plants and untreated controls were maintained in a greenhouse for approximately ten days, after which time all treated plants were compared to untreated controls and visually evaluated for injury. Plant response ratings, summarized in Table A, are based on a 0 to 100 scale where 0 is no effect and 100 is complete control. A dash (-) response means no test result.
# [6] = test system: barnyardgrass (Echinochloa crus-galli); assay: Test A pre-/postemergence plant response
# Excerpt: as §2, §3
# [7] = test system: pigweed (Amaranthus retroflexus); assay: Test A pre-/postemergence plant response
# Excerpt: as §2, §3
# [8] = test system: large crabgrass (Digitaria sanguinalis); assay: Test A pre-/postemergence plant response
# Excerpt: as §2, §3
# [9] = test system: giant foxtail (Setaria faberii); assay: Test A pre-/postemergence plant response
# Excerpt: as §2, §3
# [10] = test system: wheat (Triticum aestivum); assay: Test A pre-/postemergence plant response
# Excerpt: as §2, §3
# [11] = test system: morningglory (Ipomoea spp.); assay: Test A pre-/postemergence plant response
# Excerpt: as §2, §3
# [12] = test system: velvetleaf (Abutilon theophrasti); assay: Test A pre-/postemergence plant response
# Excerpt: as §2, §3
# [13] = 62 g ai/ha, scale of 0 to 100 where 0 is no effect and 100 is complete control
# [14] = Postemergence, 125 g ai/ha, 0 to 100 scale where 0 is no effect and 100 is complete control
# [15] = Postemergence, 500 g ai/ha, 0 to 100 scale, 0 = no effect, 100 = complete control, approx. ten days
# [16] = Preemergence, 125 g ai/ha, 0 to 100 scale, 0 = no effect, 100 = complete control
# [17] = Preemergence, 500 g ai/ha, visual injury, 0 to 100 scale (0 no effect, 100 complete control), approx. ten days
# [18] = 125 g ai/ha, scale 0 to 100, 0 is no effect, 100 is complete control
# [19] = Flood, 31 g ai/ha, scale 0 to 100 (0 no effect, 100 complete control)
structure (smiles),measurement,setting,value
O=C1CCCC(O)=C1C(=O)c1cnc(C2CCC2)n(-c2ccccc2)c1=O [Compound 114],"Plant response rating, Flood, Barnyardgrass",[1],40
same,"Plant response rating, Barnyardgrass",[1]; [13],20
same,"Plant response rating, Flood, Rice",[2],20
same,"Plant response rating, Rice",[2]; [13],0
same,"Plant response rating, Flood, Sedge, Umbrella",[3],40
same,"Plant response rating, Sedge, Umbrella",[3]; [13],30
same,"Plant response rating, Flood, Ducksalad",[4],75
same,"Plant response rating, Ducksalad",[4]; [13],65
same,"Plant response rating, Corn",[5]; [14],10
same,"Plant response rating, Corn",[5]; [15],50
same,"Plant response rating, Corn",[5]; [16],0
same,"Plant response rating, Corn",[5]; [17],0
same,"Plant response rating, Barnyardgrass",[6]; [14],70
same,"Plant response rating, Barnyardgrass",[6]; [15],90
same,"Plant response rating, Barnyardgrass",[6]; [16],30
same,"Plant response rating, Barnyardgrass",[6]; [17],90
same,"Plant response rating, Pigweed",[7]; [14],100
same,"Plant response rating, Pigweed",[7]; [15],100
same,"Plant response rating, Pigweed",[7]; [16],100
same,"Plant response rating, Pigweed",[7]; [17],100
same,"Plant response rating, Crabgrass, Large",[8]; [14],80
same,"Plant response rating, Crabgrass, Large",[8]; [15],90
same,"Plant response rating, Crabgrass, Large",[8]; [16],90
same,"Plant response rating, Crabgrass, Large",[8]; [17],100
same,"Plant response rating, Foxtail, Giant",[9]; [14],60
same,"Plant response rating, Foxtail, Giant",[9]; [15],80
same,"Plant response rating, Foxtail, Giant",[9]; [16],40
same,"Plant response rating, Foxtail, Giant",[9]; [17],80
same,"Plant response rating, Wheat",[10]; [14],0
same,"Plant response rating, Wheat",[10]; [15],0
same,"Plant response rating, Wheat",[10]; [16],0
same,"Plant response rating, Wheat",[10]; [17],20
same,"Plant response rating, Morningglory",[11]; [14],90
same,"Plant response rating, Morningglory",[11]; [15],100
same,"Plant response rating, Morningglory",[11]; [16],0
same,"Plant response rating, Morningglory",[11]; [17],80
same,"Plant response rating, Velvetleaf",[12]; [14],100
same,"Plant response rating, Velvetleaf",[12]; [15],100
same,"Plant response rating, Velvetleaf",[12]; [16],70
same,"Plant response rating, Velvetleaf",[12]; [17],100
CCn1c(-c2cccc(F)c2)ncc(C(=O)C2=C(O)CCCC2=O)c1=O [Compound 124],"Plant response rating, Flood, Barnyardgrass",[1],30
same,"Plant response rating, Barnyardgrass",[1]; [13],0
same,"Plant response rating, Barnyardgrass",[1]; [18],0
same,Barnyardgrass plant response rating,[1]; [19],0
same,"Plant response rating, Flood, Rice",[2],20
same,"Plant response rating, Rice",[2]; [13],15
same,"Plant response rating, Rice",[2]; [18],20
same,Rice plant response rating,[2]; [19],0
same,"Plant response rating, Flood, Sedge, Umbrella",[3],40
same,"Plant response rating, Sedge, Umbrella",[3]; [13],0
same,"Plant response rating, Sedge, Umbrella",[3]; [18],20
same,"Sedge, Umbrella plant response rating",[3]; [19],0
same,"Plant response rating, Flood, Ducksalad",[4],0
same,"Plant response rating, Ducksalad",[4]; [13],0
same,"Plant response rating, Ducksalad",[4]; [18],0
same,Ducksalad plant response rating,[4]; [19],0
same,"Plant response rating, Corn",[5]; [14],0
same,"Plant response rating, Corn",[5]; [15],20
same,"Plant response rating, Corn",[5]; [16],0
same,"Plant response rating, Corn",[5]; [17],0
same,"Plant response rating, Barnyardgrass",[6]; [14],40
same,"Plant response rating, Barnyardgrass",[6]; [15],90
same,"Plant response rating, Barnyardgrass",[6]; [16],20
same,"Plant response rating, Barnyardgrass",[6]; [17],60
same,"Plant response rating, Pigweed",[7]; [14],90
same,"Plant response rating, Pigweed",[7]; [15],100
same,"Plant response rating, Pigweed",[7]; [16],100
same,"Plant response rating, Pigweed",[7]; [17],100
same,"Plant response rating, Crabgrass, Large",[8]; [14],70
same,"Plant response rating, Crabgrass, Large",[8]; [15],90
same,"Plant response rating, Crabgrass, Large",[8]; [16],60
same,"Plant response rating, Crabgrass, Large",[8]; [17],90
same,"Plant response rating, Foxtail, Giant",[9]; [14],50
same,"Plant response rating, Foxtail, Giant",[9]; [15],70
same,"Plant response rating, Foxtail, Giant",[9]; [16],10
same,"Plant response rating, Foxtail, Giant",[9]; [17],40
same,"Plant response rating, Wheat",[10]; [14],0
same,"Plant response rating, Wheat",[10]; [15],0
same,"Plant response rating, Wheat",[10]; [16],0
same,"Plant response rating, Wheat",[10]; [17],0
same,"Plant response rating, Morningglory",[11]; [14],100
same,"Plant response rating, Morningglory",[11]; [15],100
same,"Plant response rating, Morningglory",[11]; [16],60
same,"Plant response rating, Morningglory",[11]; [17],80
same,"Plant response rating, Velvetleaf",[12]; [14],100
same,"Plant response rating, Velvetleaf",[12]; [15],100
same,"Plant response rating, Velvetleaf",[12]; [16],70
same,"Plant response rating, Velvetleaf",[12]; [17],100
